Experimental data as given in doi:10.1101/141937v1 (biorxiv, 2017).

Target: T1, EmrE (Escherichia coli, UniProt P23895)
T1 sequence (P23895 1-110): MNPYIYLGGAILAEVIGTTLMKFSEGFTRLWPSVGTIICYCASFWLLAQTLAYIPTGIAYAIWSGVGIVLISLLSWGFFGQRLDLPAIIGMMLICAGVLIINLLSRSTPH
Assay: biochemical

c1ccc([P+](c2ccccc2)(c2ccccc2)c2ccccc2)cc1 [TPP^+] showed a Kd of 70 ± 9 µM.
